Test: LC-MS/MS measurement of hydrolyzed cannabinoid metabolites in urine of donors known to be CBD users
Details: urine of seven known CBD users abstaining from marijuana

SMILES | carboxy-THC level in donated samples (13 of 16 samples detectible, all but one below the bound) | Parent THC detection in donated samples (16 samples)
CCCCCc1cc(O)c2c(c1)OC(C)(C)[C@@H]1CCC(C(=O)O)=C[C@@H]21 [COO-THC, 11-carboxy Δ9-THC] | less than 15 ng/mL | –
CCCCCc1cc(O)c2c(c1)OC(C)(C)[C@@H]1CCC(C)=C[C@@H]21 [THC, Tetrahydrocannabinol] | – | not detected
